In patent US12404241B2 (Celgene Corporation, priority 2018, dated 2025):
Counter-ions that a name gives are not always drawn.

Molecular target: T1, AR (Homo sapiens, UniProt P10275)
T1 construct: endogenous in cells; host or cells: VCaP cells
T1 sequence (P10275 1-920): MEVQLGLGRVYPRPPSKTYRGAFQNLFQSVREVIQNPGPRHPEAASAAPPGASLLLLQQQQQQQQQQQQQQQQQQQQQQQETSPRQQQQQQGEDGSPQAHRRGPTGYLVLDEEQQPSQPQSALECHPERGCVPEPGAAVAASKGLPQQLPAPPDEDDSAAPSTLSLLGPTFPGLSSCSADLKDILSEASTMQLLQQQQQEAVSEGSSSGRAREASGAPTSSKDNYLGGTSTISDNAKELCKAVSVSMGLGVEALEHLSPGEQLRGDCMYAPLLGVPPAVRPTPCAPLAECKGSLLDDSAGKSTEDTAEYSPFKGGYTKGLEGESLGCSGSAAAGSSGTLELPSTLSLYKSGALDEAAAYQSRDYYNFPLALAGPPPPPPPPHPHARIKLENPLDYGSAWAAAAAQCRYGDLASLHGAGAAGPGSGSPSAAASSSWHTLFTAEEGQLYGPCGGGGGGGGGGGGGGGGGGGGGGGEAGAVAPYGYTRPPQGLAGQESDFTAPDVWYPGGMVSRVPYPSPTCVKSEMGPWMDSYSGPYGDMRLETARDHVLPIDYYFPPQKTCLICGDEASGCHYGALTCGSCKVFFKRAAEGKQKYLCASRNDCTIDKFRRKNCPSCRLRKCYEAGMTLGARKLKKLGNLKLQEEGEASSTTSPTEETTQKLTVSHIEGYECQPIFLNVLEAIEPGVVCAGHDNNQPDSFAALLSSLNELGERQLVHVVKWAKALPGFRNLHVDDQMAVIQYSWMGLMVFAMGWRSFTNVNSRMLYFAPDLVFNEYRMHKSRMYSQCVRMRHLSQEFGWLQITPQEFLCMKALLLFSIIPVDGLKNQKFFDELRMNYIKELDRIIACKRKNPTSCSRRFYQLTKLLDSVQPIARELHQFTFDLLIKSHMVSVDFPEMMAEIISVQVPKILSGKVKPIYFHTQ
Experiment: VCAP AR Degradation Assay
Assay type: cell-based
Conditions: for Y (AR degradation efficiency, % of DMSO control): class symbols *; for DC50: class symbols A-C, read-out: DC50
Outline: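 AR protein in lysates quantified by sandwich ELISA after 24 h exposure of VCaP cells at 37 °C to 10 concentrations (1:3 steps, 5 μM top, final). Four-parameter logistic fit of percent-of-DMSO levels gave DC50 (50% degradation), EC50 and minimal AR level Y.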

Structure (SMILES) | Y (AR degradation efficiency, % of DMSO control) | DC50 [nM]
CC1(C)C(=O)N(c2ccc(C#N)c(C(F)(F)F)c2)C(=S)N1c1ccc(OCCN2CCN(CC(=O)Nc3cc(NC4CCC(=O)NC4=O)ccc3Cl)CC2)c(Cl)c1 (stereo not shown) [Example 20, hydrochloride] | * (0<Y<=25%) | < 100
CCc1cc(N2C(=S)N(c3cnc(C#N)c(C(F)(F)F)c3)C(=O)C2(C)C)ccc1OCCN1CCN(CC(=O)Nc2cc(Cl)cc(NC3CCC(=O)NC3=O)c2)[C@H](C)C1 (stereo partly drawn) [Example 144, N-(3-chloro-5-(2,6-dioxopiperidin-3-ylamino)phenyl)-2-((R)-4-(2-(4-(3-(6-cyano-5-(trifluoromethyl)pyridin-3-yl)-5,5-dimethyl-4-oxo-2-thioxoimidazolidin-1-yl)-2-ethylphenoxy)ethyl)-2-methylpiperazin-1-yl)acetamide] | * (0<Y<=25%) | < 100
CC(C)c1cc(N2C(=S)N(c3ccc(C#N)c(C(F)(F)F)c3)C(=O)C2(C)C)ccc1OCCN1C[C@@H](C)N(CC(=O)Nc2cc(C#N)cc(NC3CCC(=O)NC3=O)c2)[C@@H](C)C1 (stereo partly drawn) [Example 194, 2-((2S,6R)-4-(2-(4-(3-(4-cyano-3-(trifluoromethyl)phenyl)-5,5-dimethyl-4-oxo-2-thioxoimidazolidin-1-yl)-2-isopropylphenoxy)ethyl)-2,6-dimethylpiperazin-1-yl)-N-(3-cyano-5-(2,6-dioxopiperidin-3-ylamino)phenyl)acetamide] | * (0<Y<=25%) | < 100
CCc1cc(N2C(=S)N(c3ccc(C#N)c(C(F)(F)F)c3)C(=O)C2(C)C)ccc1OCCN1CCN([C@@H](C)C(=O)Nc2cccc(NC3CCC(=O)NC3=O)c2)[C@H](C)C1 (stereo partly drawn) [Example 281, (2S)-2-((R)-4-(2-(4-(3-(4-cyano-3-(trifluoromethyl)phenyl)-5,5-dimethyl-4-oxo-2-thioxoimidazolidin-1-yl)-2-ethylphenoxy)ethyl)-2-methylpiperazin-1-yl)-N-(3-(2,6-dioxopiperidin-3-ylamino)phenyl)propanamide] | * (0<Y<=25%) | < 100
CCc1cc(N2C(=S)N(c3cnc(C#N)c(C(F)(F)F)c3)C(=O)C2(C)C)ccc1OCCN1C[C@@H]2C[C@H]1CN2CC(=O)Nc1cc(Cl)cc(NC2CCC(=O)NC2=O)c1 (stereo partly drawn) [Example 115, N-(3-chloro-5-(2,6-dioxopiperidin-3-ylamino)phenyl)-2-((1S,4S)-5-(2-(4-(3-(6-cyano-5-(trifluoromethyl)pyridin-3-yl)-5,5-dimethyl-4-oxo-2-thioxoimidazolidin-1-yl)-2-ethylphenoxy)ethyl)-2,5-diazabicyclo[2.2.1]heptan-2-yl)acetamide] | ** (25%<Y<=35%) | 100 to 500
C[C@@H]1CN(CCOc2ccc(N3C(=S)N(c4ccc(C#N)c(C(F)(F)F)c4)C(=O)C3(C)C)cc2C2CC2)C[C@H](C)N1CC(=O)Nc1cccc(NC2CCC(=O)NC2=O)c1 (stereo partly drawn) [Example 204, 2-((2S,6R)-4-(2-(4-(3-(4-cyano-3-(trifluoromethyl)phenyl)-5,5-dimethyl-4-oxo-2-thioxoimidazolidin-1-yl)-2-cyclopropylphenoxy)ethyl)-2,6-dimethylpiperazin-1-yl)-N-(3-(2,6-dioxopiperidin-3-ylamino)phenyl)acetamide] | * (0<Y<=25%) | < 100
CCc1cc(N2C(=S)N(c3ccc(C#N)c(C(F)(F)F)c3)C(=O)C2(C)C)ccc1OCCN1CCN(CC(=O)Nc2cccc(NC3CCC(=O)NC3=O)c2)C[C@@H]1C (stereo partly shown) [Example 43, hydrochloride] | * (0<Y<=25%) | < 100
CCc1cc(N2C(=S)N(c3cnc(C#N)c(C(F)(F)F)c3)C(=O)C2(C)C)ccc1OCCN1CCN(CC(=O)Nc2cc(Cl)cc(NC3CCC(=O)NC3=O)c2)[C@H](C)C1 (stereo partly drawn) [Example 74, N-(3-chloro-5-(2,6-dioxopiperidin-3-ylamino)phenyl)-2-((R)-4-(2-(4-(3-(6-cyano-5-(trifluoromethyl)pyridin-3-yl)-5,5-dimethyl-4-oxo-2-thioxoimidazolidin-1-yl)-2-ethylphenoxy)ethyl)-2-methylpiperazin-1-yl)acetamide] | * (0<Y<=25%) | < 100
CCc1cc(N2C(=S)N(c3cnc(C#N)c(C(F)(F)F)c3)C(=O)C2(C)C)ccc1OCCN1C[C@@H](C)N(CC(=O)Nc2cc(Cl)cc(NC3CCC(=O)NC3=O)c2)C[C@H]1C (stereo partly drawn) [Example 169, N-(3-chloro-5-(2,6-dioxopiperidin-3-ylamino)phenyl)-2-((2R,5R)-4-(2-(4-(3-(6-cyano-5-(trifluoromethyl)pyridin-3-yl)-5,5-dimethyl-4-oxo-2-thioxoimidazolidin-1-yl)-2-ethylphenoxy)ethyl)-2,5-dimethylpiperazin-1-yl)acetamide] | * (0<Y<=25%) | < 100
C[C@@H]1CN(CCOc2ccc(N3C(=S)N(c4ccc(C#N)c(C(F)(F)F)c4)C(=O)C3(C)C)cc2CC(F)F)CCN1CC(=O)Nc1cc(Cl)cc(NC2CCC(=O)NC2=O)c1 (stereo partly drawn) [Example 152, N-(3-chloro-5-(2,6-dioxopiperidin-3-ylamino)phenyl)-2-((R)-4-(2-(4-(3-(4-cyano-3-(trifluoromethyl)phenyl)-5,5-dimethyl-4-oxo-2-thioxoimidazolidin-1-yl)-2-(2,2-difluoroethyl)phenoxy)ethyl)-2-methylpiperazin-1-yl)acetamide] | * (0<Y<=25%) | < 100
CCCc1cc(N2C(=S)N(c3ccc(C#N)c(C(F)(F)F)c3)C(=O)C2(C)C)ccc1OCCN1CCN(CC(=O)Nc2cccc(NC3CCC(=O)NC3=O)c2)CC1 (stereo not shown) [Example 34, hydrochloride] | * (0<Y<=25%) | < 100
CC1(C)C(=O)N(c2ccc(C#N)c(C(F)(F)F)c2)C(=S)N1c1ccc(OCCN2CCN(CC(=O)Nc3cc(Cl)cc(NC4CCC(=O)NC4=O)c3)CC2)c(CC(F)F)c1 (stereo not shown) [Example 159, N-(3-chloro-5-(2,6-dioxopiperidin-3-ylamino)phenyl)-2-(4-(2-(4-(3-(4-cyano-3-(trifluoromethyl)phenyl)-5,5-dimethyl-4-oxo-2-thioxoimidazolidin-1-yl)-2-(2,2-difluoroethyl)phenoxy)ethyl)piperazin-1-yl)acetamide] | * (0<Y<=25%) | < 100
CC[C@@H]1CN(CCOc2ccc(N3C(=S)N(c4ccc(C#N)c(C(F)(F)F)c4)C(=O)C3(C)C)cc2C2CC2)CCN1CC(=O)Nc1cccc(NC2CCC(=O)NC2=O)c1 (stereo partly drawn) [Example 261, 2-((R)-4-(2-(4-(3-(4-cyano-3-(trifluoromethyl)phenyl)-5,5-dimethyl-4-oxo-2-thioxoimidazolidin-1-yl)-2-cyclopropylphenoxy)ethyl)-2-ethylpiperazin-1-yl)-N-(3-(2,6-dioxopiperidin-3-ylamino)phenyl)acetamide] | ** (25%<Y<=35%) | 100 to 500
CCc1cc(N2C(=S)N(c3cnc(C#N)c(C(F)(F)F)c3)C(=O)C2(C)C)ccc1OCCN1CCN(CC(=O)Nc2cccc(NC3CCC(=O)NC3=O)c2)[C@H](C)C1 (stereo partly drawn) [Example 81, 2-((R)-4-(2-(4-(3-(6-cyano-5-(trifluoromethyl)pyridin-3-yl)-5,5-dimethyl-4-oxo-2-thioxoimidazolidin-1-yl)-2-ethylphenoxy)ethyl)-2-methylpiperazin-1-yl)-N-(3-(2,6-dioxopiperidin-3-ylamino)phenyl)acetamide] | * (0<Y<=25%) | < 100
